We go through four compounds from US20110082410A1 (priority 2009, published 2011).

Molecules are shown by their SMILES.

In data set [1] the test system is superficial basal cell carcinomas. The settings on record: low irradiance of range 10-50 mW/cm^2; cited from earlier work.
For data set [2] the following is noted: local anesthesia: infiltrating, spraying or topical solution for transdermal delivery; cited from earlier work.
For data set [3] the following is noted: topical, compared to ALA; cited from earlier work.
Another data set concerns hair follicle. Briefly: Pulsed PDT for removal of unwanted hair with the photosensitizer methylene blue: pain during irradiation. The settings on record: for PAIN: 665 nm.

Consider `NCC(=O)CCC(=O)O` [delta-ALA, δ-Aminolevulinic Acid], for which, in data set [1], the “Pain induced by PDT treatment” value is on record as “no significant pain was reported”.

As for `CCN(CC)CC(=O)Nc1c(C)cccc1C` [lidocaine], in data set [2], the “Improvement of PDT-associated discomfort and pain” value is given as “not produced any significant improvement”.

On to `COC(=O)CCC(=O)CN` [methyl-ester-ALA], for which the Pain during illumination result in data set [3] was “significantly less pain compared to ALA”.

As for `CN(C)c1ccc2nc3ccc(=[N+](C)C)cc-3sc2c1` [methylene blue], the PAIN entry with hair follicle (5 s CW irradiation, 10 W/cm^2) is “very painful”; in the data set on hair follicle (trial 1: 2 pulses, pulse on 2.5 s, pulse off 0.5 s, 0.33 Hz, 50 J/cm^2, 10 W/cm^2), “Very high to unbearable”; with hair follicle (trial 2: 5 pulses, pulse on 1 s, pulse off 0.5 s, 0.67 Hz, 50 J/cm^2, 10 W/cm^2), “High”; in the data set on hair follicle (trial 3: 10 pulses, pulse on 0.5 s, pulse off 0.5 s, 1.00 Hz, 50 J/cm^2, 10 W/cm^2) it was “Intermediate to small”; in the data set with hair follicle (trial 4: 14 pulses, pulse on 0.35 s, pulse off 0.5 s, 1.18 Hz, 50 J/cm^2, 10 W/cm^2) it was “None”; in the data set with hair follicle (trial 5: 14 pulses, pulse on 0.35 s, pulse off 0.1 s, 2.22 Hz, 50 J/cm^2, 10 W/cm^2) it was “None”. The “Effectiveness of pulsed PDT for removal of unwanted hair” value with hair follicle (pulsed radiation) is recorded as “effective without pain”.
